The structures appear in SMILES notation.

One assay deals with T1, ULK2 kinase (Homo sapiens, UniProt Q8IYT8).
T1 construct: purchased Eurofins 14-772
The assay can be described thus: Biochemical assay for ULK2 (coupled pyruvate kinase/lactate dehydrogenase assay). Particulars: 9.7 nM ULK2 (Eurofins), myelin basic protein, 1 mM ATP; read-out: ULK2.2. How it is done:
Example 176. Biochemical Assay for ULK2
Activity of ULK2 kinase was determined spectroscopically using a coupled pyruvate kinase/lactate dehydrogenase assay that continuously monitors the ATP hydrolysis-dependent oxidation of NADH (e.g., Schindler et al. Science (2000) 289: 1938-1942). Assays were conducted in 384-well plates (100 uL final volume) using 9.7 nM ULK2 (Eurofins CAT #14-772), 0.25 mg/mL myelin basic protein, 1.5 units pyruvate kinase, 2.1 units lactate dehydrogenase, 1 mM phosphoenol pyruvate, 0.28 mM NADH and 1 mM ATP in assay buffer (100 mM Tris, pH 7.5, 15 mM MgCl2, 0.5 mM DTT, 0.1% octyl-glucoside, 0.002% (w/v) BSA, and 0.002% Triton X-100). Inhibition of ULK2 was measured by adding serial diluted test compound (final assay concentration of 1% DMSO). A decrease in absorption at 340 nm was monitored continuously for 6 hours at 30° C. on a multi-mode microplate reader (BioTek). The reaction rate was calculated using the 2-3 h time frame. The reaction rate at each concentration of compound was converted to percent inhibition using controls (i.e. reaction with no test compound and reaction with a known inhibitor) and IC50 values were calculated by fitting a four-parameter sigmoidal curve to the data using Prism (GraphPad software).

The target in assay [1] is T2, ULK1 kinase (Homo sapiens, UniProt O75385).
T2 construct: purchased Eurofins 14-959
T2 sequence (O75385 with tags, fused parts or gaps): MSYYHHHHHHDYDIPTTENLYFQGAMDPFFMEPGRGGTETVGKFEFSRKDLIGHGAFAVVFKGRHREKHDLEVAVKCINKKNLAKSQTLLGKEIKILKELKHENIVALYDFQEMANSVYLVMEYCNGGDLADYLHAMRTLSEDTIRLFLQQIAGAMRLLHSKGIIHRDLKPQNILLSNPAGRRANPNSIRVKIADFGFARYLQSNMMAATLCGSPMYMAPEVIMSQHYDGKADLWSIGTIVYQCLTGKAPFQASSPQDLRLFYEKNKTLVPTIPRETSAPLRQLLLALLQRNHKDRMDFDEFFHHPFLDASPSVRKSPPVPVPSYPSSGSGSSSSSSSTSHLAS
The assay can be described thus: Biochemical assay for ULK1.2 (coupled pyruvate kinase/lactate dehydrogenase assay). Particulars: 19 nM ULK1 (Eurofins), myelin basic protein, 1 mM ATP. In a few lines: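 NADH-coupled PK/LDH read-out at 340 nm, run with 19 nM ULK1, 0.25 mg/mL myelin basic protein and 1 mM ATP. Buffer was 100 mM Tris pH 7.5 with 15 mM MgCl2 and 1% DMSO final. Monitoring was continuous for 6 hours at 30° C; rates from the 2-3 h window were converted to percent inhibition and fitted to a four-parameter curve for IC50.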

Assay [2] has as its system phospho-Serine 318 ATG13 (pATG13) in MiaPaCa-2 cells. The assay can be described thus: pATG13 levels of mutant KRas MiaPaCa-2 cells after treatment with ULK inhibitors in combination with trametinib (ELISA). Format: cell-based, human. The method, then:
Example 178. pATG13 Levels of Mutant KRas MiaPaCa-2 Cells after Treatment with ULK Inhibitors in Combination with Trametinib
(§1) MiaPaCa-2 human pancreatic cancer cells (10000 cells/well) were added to a 384-well tissue-culture treated plate in 50 μL of pre-warmed DMEM medium supplemented with 10% characterized fetal bovine serum (Invitrogen, Carlsbad, Calif.), 100 units/mL penicillin G, 100 μg/mL streptomycin, and 2.5% Horse Serum and allowed to grow overnight at 37° C., 5% CO2, and 95% humidity. The following day, 10 μL of media containing trametinib or DMSO as a control was added to wells. The final concentration of trametinib in wells was 250 nM. A dose response of a test compound (0.6 μL per well) was added. DMSO (0.6 μL) was added to control wells. The plate was briefly shaken to mix wells and then incubated at 37° C. overnight. The next day, the media was aspirated and cells were washed with Dulbecco's Phosphate Buffered Saline (Gibco). Cells were lysed using MPER lysis buffer (Pierce, Rockford, Ill.) containing Halt Phosphatase and Protease Inhibitors (Pierce, Rockford, Ill.) and Phosphatase inhibitor cocktail 2 (Sigma, St. Louis, Mo.) at 4° C. for 10 minutes with shaking.
(§2) Cellular levels of phospho-Serine 318 ATG13 (pATG13) were measured via an ELISA method. Total ATG13 Antibody (Cell Signaling Cat #13273) was used to coat the wells. The plate was incubated at 4° C. overnight and washed with ELISA wash buffer (Biolegend Cat #421601). The wells were then blocked with assay diluent (Biolegend Cat #421203) for 1 hour at room temperature. Plate wells were washed with ELISA wash buffer. Cell lysate was added to wells and incubated at room temperature for 2 hours. Plate wells were washed with ELISA wash buffer. Biotinylated pS318-ATG13 antibody (Rockland Immunochemicals Cat #600-401-C49) was diluted in assay diluent and added to each well and incubated at room temperature for 1 hour. Plate wells were washed with ELISA wash buffer. Streptavidin linked to horseradish peroxidase (Thermo Fisher Cat #21140) was diluted in assay diluent and added to each well and incubated at room temperature for 1 hour. Plate wells were washed with ELISA wash buffer. High sensitivity TMB substrate (Biolegend Cat #421101) was added to each well and incubated at room temperature for 20 minutes. The reaction was stopped with 2N Sulfuric Acid. The plate was analyzed at on a plate reader measuring absorbance at 450 nm and 540 nm (background). Signal was calculated by first subtracting the background absorbance at 540 nm from the absorbance at 450 nm for each well. Next, the background corrected absorbance at 450 nm from blank wells was subtracted from test wells. Data was compared to control wells to determine % ATG13 phosphorylation. GraphPad Prism was used to calculate IC50 values.
In general terms: In an ELISA, binding on a coated surface is turned into a signal by an enzyme label.

Assay [3] deals with phospho-Serine 318 ATG13 (pATG13), ULK kinase substrate, in A549 (KRAS mutant) cells. As to the kind of experiment: pATG13 levels of mutant KRas A549 cells after treatment with ULK inhibitors in combination with trametinib (ELISA). Format: cell-based, human. Particulars: with 250 nM trametinib. The method, then: Example 177. Cellular Inhibition of ULK Kinase Substrate ATG13 Protein pATG13 Levels of Mutant KRas A549 Cells after Treatment with ULK Inhibitors in Combination with Trametinib
as §1, with “A549 (KRAS mutant)” for “MiaPaCa-2”, “lung” for “pancreatic”, “(6,000” for “(10000”, “G, and” for “G,”, “streptomycin” for “streptomycin, and 2.5% Horse Serum”
as §2

Assay [4] addresses T3, ULK1 kinase (Homo sapiens, UniProt O75385, E37A/K38A).
T3 construct: (residues 1-283; ID NO: 2); purchased Beryllium
T3 sequence (O75385 1-283 E37A/K38A): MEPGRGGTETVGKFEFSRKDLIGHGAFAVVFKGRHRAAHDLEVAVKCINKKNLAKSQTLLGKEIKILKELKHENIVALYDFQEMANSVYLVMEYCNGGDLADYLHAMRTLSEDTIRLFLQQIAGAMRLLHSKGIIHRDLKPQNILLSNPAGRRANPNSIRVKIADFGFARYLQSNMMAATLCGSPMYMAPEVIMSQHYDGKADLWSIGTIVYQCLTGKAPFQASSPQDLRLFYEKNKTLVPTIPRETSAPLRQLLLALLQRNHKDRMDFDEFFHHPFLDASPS
The assay can be described thus: Biochemical assay for ULK1.3 (coupled pyruvate kinase/lactate dehydrogenase assay). Particulars: 0.1 nM ULK1 (from Beryllium), peptide substrate, 1 mM ATP. The method, then:
Example 175. Biochemical Assay for ULK1.3
Activity of ULK1 kinase was determined spectroscopically using a coupled pyruvate kinase/lactate dehydrogenase assay that continuously monitors the ATP hydrolysis-dependent oxidation of NADH (e.g., Schindler et al. Science (2000) 289: 1938-1942). Assays were conducted in 384-well plates (100 uL final volume) using 0.1 nM ULK1 (from Beryllium), 0.075 mM peptide substrate (YANWLAASIYLDGKKK (SEQ ID NO: 5)), 1.5 units pyruvate kinase, 2.1 units lactate dehydrogenase, 1 mM phosphoenol pyruvate, 0.28 mM NADH and 1 mM ATP in assay buffer (100 mM Tris, pH 7.5, 15 mM MgCl2, 0.5 mM DTT, 0.004% (w/v) BSA, and 0.004% Triton X-100). Inhibition of ULK1 was measured by adding serial diluted test compound (final assay concentration of 1% DMSO). A decrease in absorption at 340 nm was monitored continuously for 6 hours at 30° C. on a multi-mode microplate reader (BioTek). The reaction rate was calculated using the 2-3 h time frame. The reaction rate at each concentration of compound was converted to percent inhibition using controls (i.e. reaction with no test compound and reaction with a known inhibitor) and IC50 values were calculated using software routines in Prism (GraphPad software).

A further assay deals with T4, LRRK2 kinase (Homo sapiens, UniProt Q5S007).
T4 construct: purchased Thermo Fisher
The assay can be described thus: Biochemical assay for LRRK2 (coupled pyruvate kinase/lactate dehydrogenase assay). The following applies: 26.4 nM LRRK2 (residues 970-2528), 0.1 mM peptide substrate, 1 mM ATP.

T1 sequence (Q8IYT8 with tags, fused parts or gaps): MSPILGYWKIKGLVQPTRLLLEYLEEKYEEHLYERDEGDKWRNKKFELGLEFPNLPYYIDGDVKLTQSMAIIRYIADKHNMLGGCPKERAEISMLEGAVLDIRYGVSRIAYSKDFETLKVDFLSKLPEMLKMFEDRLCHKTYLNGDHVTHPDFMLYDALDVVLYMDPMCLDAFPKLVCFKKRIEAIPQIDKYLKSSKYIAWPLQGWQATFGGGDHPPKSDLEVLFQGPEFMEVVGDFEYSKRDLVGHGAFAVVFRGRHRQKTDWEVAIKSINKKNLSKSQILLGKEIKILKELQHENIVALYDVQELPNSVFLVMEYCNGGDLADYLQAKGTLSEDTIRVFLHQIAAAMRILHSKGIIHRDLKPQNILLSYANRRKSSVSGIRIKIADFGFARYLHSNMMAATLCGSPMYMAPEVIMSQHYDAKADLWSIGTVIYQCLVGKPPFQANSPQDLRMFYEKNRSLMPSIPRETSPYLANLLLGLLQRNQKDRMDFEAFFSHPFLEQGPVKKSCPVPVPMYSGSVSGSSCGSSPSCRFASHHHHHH
T4 sequence (Q5S007 with tags, fused parts or gaps): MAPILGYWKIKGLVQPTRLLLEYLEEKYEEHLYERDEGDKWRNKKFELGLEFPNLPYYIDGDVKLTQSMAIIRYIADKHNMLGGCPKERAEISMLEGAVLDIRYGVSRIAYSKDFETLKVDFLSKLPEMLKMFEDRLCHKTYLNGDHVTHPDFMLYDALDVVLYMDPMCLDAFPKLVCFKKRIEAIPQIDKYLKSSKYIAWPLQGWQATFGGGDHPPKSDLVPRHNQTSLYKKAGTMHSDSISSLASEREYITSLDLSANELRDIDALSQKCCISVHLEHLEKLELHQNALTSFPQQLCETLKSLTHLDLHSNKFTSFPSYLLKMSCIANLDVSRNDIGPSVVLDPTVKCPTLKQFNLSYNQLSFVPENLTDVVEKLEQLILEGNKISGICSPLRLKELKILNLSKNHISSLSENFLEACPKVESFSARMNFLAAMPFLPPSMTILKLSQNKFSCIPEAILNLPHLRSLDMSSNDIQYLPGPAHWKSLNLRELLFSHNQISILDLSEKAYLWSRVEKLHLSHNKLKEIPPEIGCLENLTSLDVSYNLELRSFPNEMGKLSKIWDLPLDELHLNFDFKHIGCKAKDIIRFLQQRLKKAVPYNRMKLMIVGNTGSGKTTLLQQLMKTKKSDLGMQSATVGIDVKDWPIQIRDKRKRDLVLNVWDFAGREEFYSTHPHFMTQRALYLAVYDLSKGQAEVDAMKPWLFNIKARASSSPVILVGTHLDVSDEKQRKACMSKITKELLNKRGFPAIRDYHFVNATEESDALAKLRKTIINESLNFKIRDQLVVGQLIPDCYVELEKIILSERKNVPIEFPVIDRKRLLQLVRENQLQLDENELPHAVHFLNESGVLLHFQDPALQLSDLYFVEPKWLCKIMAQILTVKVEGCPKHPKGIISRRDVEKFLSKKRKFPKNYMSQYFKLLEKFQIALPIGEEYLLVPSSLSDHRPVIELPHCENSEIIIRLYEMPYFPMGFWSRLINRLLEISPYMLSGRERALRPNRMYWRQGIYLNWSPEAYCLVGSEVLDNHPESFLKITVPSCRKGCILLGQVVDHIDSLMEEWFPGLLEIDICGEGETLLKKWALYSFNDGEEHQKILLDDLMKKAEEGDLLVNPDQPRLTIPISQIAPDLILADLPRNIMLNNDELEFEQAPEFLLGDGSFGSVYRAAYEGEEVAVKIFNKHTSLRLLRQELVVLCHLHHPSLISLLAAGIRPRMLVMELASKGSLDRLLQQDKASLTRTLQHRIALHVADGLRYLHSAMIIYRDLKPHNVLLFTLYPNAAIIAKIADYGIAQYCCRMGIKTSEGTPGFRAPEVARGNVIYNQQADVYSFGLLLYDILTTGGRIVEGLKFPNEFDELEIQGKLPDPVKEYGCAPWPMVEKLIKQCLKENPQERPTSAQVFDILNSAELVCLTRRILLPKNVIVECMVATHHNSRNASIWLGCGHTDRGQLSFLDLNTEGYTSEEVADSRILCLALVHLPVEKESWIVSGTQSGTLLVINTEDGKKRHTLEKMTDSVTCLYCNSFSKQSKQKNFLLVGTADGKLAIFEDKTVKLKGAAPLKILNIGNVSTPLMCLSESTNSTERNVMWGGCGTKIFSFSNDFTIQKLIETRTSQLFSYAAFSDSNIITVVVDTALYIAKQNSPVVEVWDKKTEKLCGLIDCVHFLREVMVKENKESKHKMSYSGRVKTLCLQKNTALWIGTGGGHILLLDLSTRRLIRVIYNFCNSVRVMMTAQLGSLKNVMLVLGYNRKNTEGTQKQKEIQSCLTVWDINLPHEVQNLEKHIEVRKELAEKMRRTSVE

Regarding `CCN1CCC(n2cc(Nc3cc(NCCCN4CCCCC4=O)c(C(F)(F)F)cn3)cn2)CC1` [Example 16], the IC50 fell in the range of 100 to 500 nM on ULK2 kinase, 25 to 100 nM against ULK1 kinase [1], 10 to 100 nM in assay [2] and 100 to 300 nM in assay [3].
With `Cc1nn([C@@H]2CCN(C)C2)cc1Nc1ncc(Br)c(NCCCN2CCCCC2=O)n1` [Example 44], the IC50 on ULK2 kinase was 100 to 500 nM; against ULK1 kinase [1], 25 to 100 nM; in assay [2], 100 to 300 nM; in assay [3] it was 100 to 300 nM.
Consider `CCc1nn(C2CCN(CC)CC2)cc1Nc1ncc(Br)c(NCCCN2CCCCC2=O)n1` [Example 54], for which the IC50 at ULK1 kinase [1] is 25 to 100 nM; in assay [2], 100 to 300 nM; in assay [3], 100 to 300 nM.
Regarding `Cc1nn([C@@H]2CCNC2)cc1Nc1ncc(Br)c(NCCCN2CCCCC2=O)n1` [Example 60], the IC50 at ULK2 kinase is 100 to 500 nM; against ULK1 kinase [1], 25 to 100 nM; in assay [2] it was 10 to 100 nM; in assay [3] it was greater than 600 nM.
For `CCN1CC[C@H](n2cc(Nc3ncc(C(F)(F)F)c(NCCCN4CCCCC4=O)n3)c(C)n2)C1` [Example 66], the IC50 on ULK2 kinase was in the range of 100 to 500 nM; against ULK1 kinase [1], 25 to 100 nM; in assay [2], 100 to 300 nM; in assay [3] it was 100 to 300 nM.
For `Cc1nn(C2CCN(C(C)C)CC2)cc1Nc1ncc(Br)c(NCCCN2CCCOC2=O)n1` [Example 71], the IC50 at ULK1 kinase [4] is 25 to 100 nM; in assay [2], 100 to 300 nM; in assay [3], greater than 600 nM.
Take `Cc1nn(C2CCN(C(C)C)CC2)cc1Nc1ncc(Cl)c(NCCCN2CCCOC2=O)n1` [Example 72]: the IC50 on ULK1 kinase [4] is 25 to 100 nM; in assay [2], 100 to 300 nM; in assay [3], greater than 600 nM.
With `O=C1CCCCCN1CCCNc1nc(Nc2cnn(CCN3CCOCC3)c2)ncc1C(F)(F)F` [Example 96], the IC50 against ULK1 kinase [1] was in the range of 25 to 100 nM; in assay [2], 100 to 300 nM; in assay [3] it was 300 to 600 nM.
As for `Cc1nn(CCCN2CCCC2)cc1Nc1ncc(C(F)(F)F)c(NCCCN2CCCCCC2=O)n1` [Example 99], the IC50 lay within 100 to 500 nM at ULK2 kinase, 1 to 25 nM against ULK1 kinase [1], 10 to 100 nM in assay [2] and 100 to 300 nM in assay [3].
Turning to `Cc1nn(C2CCN(C)C2)cc1Nc1ncc(Br)c(NCCCN2CCCOCC2=O)n1` (stereo not shown) [Example 118], the IC50 against ULK1 kinase [4] was 25 to 100 nM; on LRRK2 kinase, 1 to 100 nM; in assay [2], 100 to 300 nM; in assay [3] it was 300 to 600 nM.
Take `Cc1nn(CCCN2CCOCC2)cc1Nc1ncc(C(F)(F)F)c(NCCCN2CCOCCC2=O)n1` [Example 129]: the IC50 was greater than 500 nM at ULK2 kinase, 100 to 500 nM at ULK1 kinase [1], greater than 600 nM in assay [2] and greater than 600 nM in assay [3].
Turning to `Cc1nn([C@@H]2CCN(C)C2)cc1Nc1ncc(C(F)(F)F)c(NCCCN2CCOCCC2=O)n1` [Example 133], the values for the IC50 (against ULK1 kinase [1]; in assay [2]; in assay [3]) were 1 to 25 nM, 10 to 100 nM and 10 to 100 nM, respectively.
`Cc1nn([C@@H]2CCN(C)C2)cc1Nc1ncc(Br)c(NCCCN2CCOCCC2=O)n1` [Example 138]: the IC50 against ULK1 kinase [4] is 25 to 100 nM; in assay [2], 100 to 300 nM; in assay [3], 300 to 600 nM.
As to `CN1CCC(n2ccc(Nc3cc(NCCCN4CCCCC4=O)c(C(F)(F)F)cn3)n2)CC1` [Example 173], the values for the IC50 (against ULK1 kinase [4]; in assay [2]; in assay [3]) were 1 to 25 nM, 10 to 100 nM and 10 to 100 nM, respectively.
